Experimental data as given in patent publication US20250049819A1, “METHODS FOR TREATING AND PREVENTING C. DIFFICILE INFECTION” (Paratek Pharmaceuticals, Inc., priority 2016, published 2025).
Converted amounts (≈) assume the structure as drawn. Read-outs that look alike come from different tables or passages of the source.

How the values were obtained:
[1] = system: C. difficile strain ATCC 43596; test: MIC90 against the infection model strain; assay type: cell-based; details: Clostridioides difficile, ATCC43596
[2] = system: C. difficile PCR ribotype 027 strain 210; test: In vitro human gut model, C. difficile germination, proliferation and toxin production (Example 3); assay type: cell-based; details: 430 mg/L once daily for 7 days
Source text: An in vitro gut model was used to study the effects of omadacycline instillation on both normal microflora populations and C. difficile. This gut model has been validated against gut contents from sudden death victims and provides a very close simulation of bacterial activities and composition in different areas of the hindgut (Macfarlane et al., Microb. Ecol. 35, 180-7, 1998). The model consists of three vessels aligned in series, and top-fed with a complex growth medium. All three vessels are continuously stirred, anaerobically maintained at 37° C. and regulated to reflect in vivo differences, including pH, from proximal to distal colon. The three anaerobic fermentation vessels are maintained at increasing alkalinity (from pH 5.5±0.2 for vessel 1; pH 6.2±0.2 for vessel 2; and pH 6.8±0.2 for vessel 3). The increasing alkalinity in combination with the nutrient limited conditions are designed to simulate the human gut from the proximal to the distal colon. […] At this stage, dietary ingredients, prebiotics, pathogens and/or antibiotics may be added, and the bacterial populations monitored. Specific components of the gut flora and relevant pathogens may be closely monitored and their behavior analyzed. […]
Gut microbiota bacterial populations and C. difficile total viable counts and spore counts were enumerated daily by culture on selective and non-selective agars. C. difficile populations were monitored in all three vessels, and all other bacterial groups (total obligate anaerobes, total facultative anaerobes, lactose fermenting enterobacteriaceae, enterococci, total clostridia, lactobacilli, bifidobacteria, B. fragilis group) were monitored in vessels 2 and 3 only. […] C. difficile total viable counts and spores counts were monitored using viable counting and a differential alcohol shock viable count on selective agars.
From day 14 onwards C. difficile cytotoxin was measured using a quantitative VERO cell cytotoxicity assay. […] Concentrations of omadacyline were measured by large-plate bioassay using Wilkins Chalgren agar with Kocuria rhizophila as the indicator organism.

CN(C)c1cc(CNCC(C)(C)C)c(O)c2c1C[C@H]1C[C@H]3[C@H](N(C)C)C(O)=C(C(N)=O)C(=O)[C@@]3(O)C(O)=C1C2=O (stereo in doubt) [Omadacycline]
MIC90 ([1]; read-out: MIC90): 0.06 µg/mL (≈ 0.108 µM) | MIC90 ([1]; replicate plate A, read-out: MIC90 Plate A): 0.06 µg/mL (≈ 0.108 µM) | MIC90 ([1]; replicate plate B, read-out: MIC90 Plate B): 0.06 µg/mL (≈ 0.108 µM) | C. difficile vegetative cell proliferation ([2]; all three vessels): no vegetative cell proliferation observed | signs of simulated C. difficile infection ([2]; all three vessels): did not lead to any signs of simulated C. difficile infection | C. difficile toxin detection (VERO cell cytotoxicity assay) ([2]; any vessels): No toxin was detected
